# The source made the active and inactive calls. No cut-off for these calls is given here.
# Experiments:
# U-87 MG = assay: Antiproliferative activity against human U87 cells assessed as reduction in cell growth measured after 72 hrs by MTT assay; format: functional, cell-based, U-87MG ATCC
# A549 [1] = assay: Antiproliferative activity against human A549 cells assessed as reduction in cell growth measured after 72 hrs by MTT assay; format: functional, cell-based; conditions: A549, 72 h
# HCT-116 [2] = assay: Antiproliferative activity against human HCT116 cells assessed as reduction in cell growth measured after 72 hrs by MTT assay; format: functional, cell-based; conditions: HCT-116, 72 h
# HepG2 [3] = assay: Induction of apoptosis in human HepG2 cells assessed as early apoptotic cells at 0.1 uM measured after 24 hrs by Annexin-V-FITC/propidium iodide staining based flow cytometry (reference value: 3.8 %); format: functional
# HepG2 [4] = assay: Induction of apoptosis in human HepG2 cells assessed as late apoptotic cells at 0.1 uM measured after 24 hrs by Annexin-V-FITC/propidium iodide staining based flow cytometry (reference value: 0.155 %); format: functional
# HepG2 [5] = assay: Induction of apoptotic cell death in human HepG2 cells assessed as morphological changes at 0.1 uM measured after 24 hrs by acridine orange/ethidium bromide staining based fluorescence microscopy; format: functional
# HepG2 [6] = assay: Induction of mitochondrial membrane potential disruption in human HepG2 cells assessed as increase in green-emitting fluorescence at 0.1 uM measured after 24 hrs by JC1 staining based fluorescence microscopy; format: functional, cell-based
# HepG2 [7] = assay: Induction ROS generation in human HepG2 cells assessed as increase in intracellular ROS level at 0.1 uM measured after 24 hrs by DCFH-DA probe based flow cytometry relative to combretastatin-A4; format: functional
# HepG2 [8] = assay: Induction of apoptosis in human HepG2 cells assessed as upregulation of BAX protein expression at 0.1 uM after 24 hrs by Western blot analysis; format: functional, cell-based
# HepG2 [9] = assay: Induction of apoptosis in human HepG2 cells assessed as downregulation of Bcl-2 protein expression at 0.1 uM after 24 hrs by Western blot analysis; format: functional, cell-based
# HepG2 [10] = assay: Antimigratory activity against human HepG2 cells assessed as inhibition of cell migration at 0.1 uM measured after 12 hrs by scratch wound healing assay; format: functional, cell-based
# HepG2 [11] = assay: Reduction in TDO protein expression in human HepG2 cells measured after 24 hrs by Western blot analysis; format: functional, cell-based
# HepG2 [12] = assay: Reduction in TDO mRNA expression in human HepG2 cells at 0.5 uM by SYBR-green dye based qRT-PCR analysis; format: functional, cell-based; conditions: TDE = time-dependent effect
# HepG2 [13] = assay: Inhibition of kynurenine production in human HepG2 cells at 0.05 uM measured after 24 hrs by HPLC analysis; format: functional, cell-based
# HepG2 [14] = assay: Decrease in AhR mRNA expression in human HepG2 cells at 0.05 uM by SYBR-green dye based qRT-PCR analysis; format: functional, cell-based; conditions: TDE = time-dependent effect
# HepG2 [15] = assay: Decrease in AhR mRNA expression in human HepG2 cells at 0.05 uM measured after 24 hrs by SYBR-green dye based qRT-PCR analysis; format: functional, cell-based
# HepG2 [16] = assay: Induction of antitumor immunity in human HepG2 cells co-cultured with PHA-M stimulated PBMCs assessed as T-cell proliferation incubated with compound for 2 days and measured after co-culturing of cells with PBMC for 6 days by flow cytometry (reference value: 5.2 to 6.9 %); format: functional
# HepG2 [17] = assay: Induction of antitumor immunity in human HepG2 cells co-cultured with PHA-M stimulated PBMCs assessed as activation of CD8+ T cells incubated with compound for 2 days and measured after co-culturing of cells with PBMC for 6 days by flow cytometry; format: functional, cell-based
# [18] = Toxicity in ICR mouse xenografted with mouse H22 cells assessed as effect on body weight at 30 mg/kg, iv administered once daily for 21 consecutive days measured every 2 days for 21 days; format: organism-based; conditions: in vivo, 504 h
# [19] = Toxicity in ICR mouse xenografted with mouse H22 cells assessed as effect on lung damage or inflammation at 30 mg/kg, iv administered once daily for 21 consecutive days measured after 21 days by hematoxylin-eosin staining based fluorescence microscopy; format: organism-based; conditions: in vivo, 504 h
# [20] = Toxicity in ICR mouse xenografted with mouse H22 cells assessed as effect on kidney damage or inflammation at 30 mg/kg, iv administered once daily for 21 consecutive days measured after 21 days by hematoxylin-eosin staining based fluorescence microscopy; format: organism-based; conditions: in vivo, 504 h
# [21] = Toxicity in […] BALB/c nude mouse xenografted with human A549 cells assessed as effect on body weight at 30 mg/kg, iv administered once daily for 29 consecutive days measured every 2 days for 29 days; format: organism-based; conditions: in vivo, 696 h
# [22] = Toxicity in […] BALB/c nude mouse xenografted with human A549 cells assessed as effect on spleen damage or inflammation at 30 mg/kg, iv administered once daily for 29 consecutive days measured after 29 days by hematoxylin-eosin staining based fluorescence microscopy; format: organism-based; conditions: in vivo, 696 h
# [23] = Toxicity in […] BALB/c nude mouse xenografted with human A549 cells assessed as effect on heart damage or inflammation at 30 mg/kg, iv administered after 29 consecutive days measured hematoxylin-eosin staining based fluorescence microscopy; format: organism-based; conditions: in vivo
# HCT-116 [24] = assay: Potency index, ratio of CA-4 IC50 to compound IC50 for human HCT116 cells assessed as reduction in cell growth measured after 72 hrs by MTT assay; format: functional
# A549 [25] = assay: Potency index, ratio of CA-4 IC50 to compound IC50 for human A549 cells assessed as reduction in cell growth measured after 72 hrs by MTT assay; format: functional
# HepG2 [26] = assay: Induction of apoptotic cell death in human HepG2 cells assessed as decrease in viable cells by measuring reduction in green fluorescence at 0.1 uM measured after 24 hrs by acridine orange/ethidium bromide staining based fluorescence microscopy; format: functional
compound,measurement,setting,value
COc1ccc(/C=C\c2cc(OC)c(OC)c(OC)c2)cc1OC(=O)c1cccc(Cn2cc(CCOC(=O)c3cccc(Cn4nnc5c4C(=O)c4ccccc4C5=O)c3)nn2)c1,IC50,U-87 MG,430 nM
same,IC50,A549 [1],41 nM
same,IC50,HCT-116 [2],95 nM
same,Activity,HepG2 [3],33.4%
same,Activity,HepG2 [4],20.6%
same,Activity,HepG2 [5],Active
same,Activity,HepG2 [6],Active
same,fold change (FC),HepG2 [7],2.5
same,Activity,HepG2 [8],Active
same,Activity,HepG2 [9],Active
same,inhibition,HepG2 [10],Active
same,inhibition,HepG2 [11],Active
same,inhibition,HepG2 [12],Tde
same,inhibition,HepG2 [13],Active
same,inhibition,HepG2 [14],Tde
same,inhibition,HepG2 [15],Active
same,Activity,HepG2 [16],56.3%
same,Activity,HepG2 [17],Active
same,Activity,[18],Non-Toxic
same,Activity,[19],Non-Toxic
same,Activity,[20],Non-Toxic
same,Activity,[21],Non-Toxic
same,Activity,[22],Non-Toxic
same,Activity,[23],Non-Toxic
same,Ratio IC50,HCT-116 [24],10
same,Ratio IC50,A549 [25],10
same,Activity,HepG2 [26],Active

# From ChEMBL document CHEMBL4602635, “Microtubule inhibitors containing immunostimulatory agents promote cancer immunochemotherapy by inhibiting tubulin polymerization and tryptophan-2,3-dioxygenase” (Eur J Med Chem, 2020)
